Counter-ions that a name gives are not always drawn. Like-named read-outs stand apart in the source and are kept apart here.
How the values were obtained:
[1] = system: Pseudomonas aeruginosa (X11045); assay: Checkerboard MIC / synergy determination (FIC, CI) against Pseudomonas aeruginosa; assay type: cell-based; settings: for MIC tetracycline (μg/ml) (combination) / CI value / synergy with diminazene (in words) / FIC tetracycline compound / FIC tetracycline / MIC tetracycline / MIC tetracycline compound / MIC / MIC dibromopropamidine (μg/ml) (combination) / FIC dibromopropamidine / MIC diminazene (μg/ml) (combination): P. aeruginosa; for CI value: CI < 1 = synergy; for synergy with diminazene (in words): combination with diminazene, Table 2; for FIC tetracycline compound: in combination with dibromopropamidine; for FIC tetracycline: in combination with diminazene; for synergy with dibromopropamidine (in words): combination with dibromopropamidine, inhibition of P. aeruginosa, Table 3; for MIC: Pseudomonas aeruginosa
Description: In microbiology, minimum inhibitory concentration (MIC) is the lowest concentration of an antibacterial that will inhibit the visible growth of a microorganism after overnight incubation. Minimum inhibitory concentrations are important in diagnostic laboratories to confirm resistance of microorganisms to an antimicrobial agent and also to monitor the activity of new antimicrobial agents. The MIC can be determined using standard methods, for example as described in Andrews, J. Antimicrobial Chemotherapy, 48, 2001, Suppl. S1, 5-16. Typically, MIC is determined using 96-well plates, and serial two-fold dilutions of the antibacterial agent in a culture medium containing the bacteria with an approximate concentration of 10^3 cells per well. Plates are incubated at 37° C. for 18 to 24 hours. Optical density, at a wavelength of 600 nm, is then measured at the start and at the end of the incubation period. Inhibition in a particular well is calculated as (Inhibition=1−ODtest/ODno treatment). The MIC value is the minimum concentration of antibacterial agent which gives 100% inhibition. Experiments are generally performed at least as triplicate biological replicates.
The CI is measured by first calculating the fractional inhibitory concentration (FIC) of the individual actives (e.g. “compound A” or “compound B”) in a combination product against a certain bacterial strain. This is calculated by dividing the minimum inhibitory concentration (MIC) of the active in a combination product by the minimum inhibitory concentration of the active alone.
The Combination Index (CI) is calculated by adding the FIC of the two actives together. CI value=FICCompound A+FICCompound B
A CI value of 1 means the combined effect of the two agents is additive. A CI value of less than 1 means that the two agents act synergistically. It is therefore understood that the lower the CI value, the better the synergistic effect of the combination product. For a drug combination to show synergistic effects, the CI value will typically be less than 1.
This study was conducted with the following strains: Pseudomonas aeruginosa (X11045). P. aeruginosa (X11045) was received form Statens Serum Institute.
The bacteria from cryopreserved stocks were grown on LB agar plates [G. Bertani, “Studies on lysogenesis. I. The mode of phage liberation by lysogenic Escherichia coli,” J. Bacteriol., vol. 62, no. 3, pp. 293-300, September 1951] and incubated overnight at 37° C.
One colony was transferred into 15 ml of cation-adjust Mueller Hinton broth (MH2) [J. H. Mueller and J. Hinton, “A Protein-Free Medium for Primary Isolation of the Gonococcus and Meningococcus,” Exp. Biol. Med., vol. 48, no. 1, pp. 330-333, October 1941] and incubated overnight at 37° C. shaken at 200 rpm.
Checkerboard Methods of Antimicrobial Combinations Synergy Determination • 1. Day 1. • Bacterial strains are isolated on agar plates and incubated overnight at 37° C. Pseudomonas aeruginosa (X11045) on LB agar. • 2. Day 2. • For each strain, one colony is transferred into 15 ml of Mueller Hinton broth (MHB) and incubated overnight at 37° C. shaken at 200 rpm. • 3. Day 3. • Fifty microliters of the O/N culture are inoculated to 5 ml of Mueller Hinton broth in 15 ml conical tubes and incubated for 5 hours at 37° C. shaken at 200 rpm. • 4. Dispense 150 μl of MHB in each well of the 12th column for positive and negative controls as shown above. • 5. Prepare each drug to Cmax×2 • a. Diminazene/Dibromopropamidine: • Make a series of 2-fold dilution as shown in the plate layout. Using the 12 channel pipet, dispense 75 μl of diminazene solution in each well so that the final volume will be 150 μl and the final concentration is as shown in the plate schematic above. • b. Tetracycline antibiotics: • Make a series of 2-fold dilution as shown in the plate layout. […]

[2] = cited from earlier work
[3] = system: E. Coli; assay: Checkerboard MIC / synergy determination (FIC, CI) against E. coli; assay type: cell-based, Escherichia coli; settings: for MIC tetracycline (μg/ml) (combination): MIC of the tetracycline antibiotic in combination with diminazene; for CI value: combination of the tetracycline antibiotic with diminazene, CI < 1 = synergy; for FIC tetracycline compound: in combination with diminazene; for MIC: Escherichia coli
[4] = MIC of the tetracycline antibiotic in combination with dibromopropamidine
[5] = MIC of the tetracycline antibiotic in combination with diminazene, OD600 after 18 hours
[6] = combination of the tetracycline antibiotic with dibromopropamidine
[7] = combination of the tetracycline antibiotic with diminazene
[8] = tetracycline antibiotic alone, Table 2 (diminazene series)
[9] = tetracycline antibiotic alone, Table 3 (dibromopropamidine series)
[10] = in combination with doxycycline hyclate
[11] = in combination with minocycline hydrochloride
[12] = in combination with tetracycline hydrochloride
[13] = in combination with tigecycline hydrate
[14] = diminazene alone, read-out: MIC diminazene
[15] = diminazene in combination with doxycycline hyclate
[16] = diminazene in combination with minocycline hydrochloride
[17] = diminazene in combination with tetracycline hydrochloride

Compound | MIC tetracycline (μg/ml) (combination) [1, 4] [µg/mL] | MIC tetracycline (μg/ml) (combination) [1, 5] [µg/mL] | CI value [1, 6] | CI value [1, 7] | synergy with diminazene (in words) [1] | FIC tetracycline compound [1] | FIC tetracycline [1] | MIC tetracycline compound [1, 9] [µg/mL] | Protein binding (%) [2] | MIC tetracycline (μg/ml) (combination) [3] [µg/mL] | CI value [3] | FIC tetracycline compound [3] | MIC tetracycline compound ([3]; tetracycline antibiotic alone) [µg/mL] | also measured
C[C@H]1c2cccc(O)c2C(=O)C2=C(O)[C@]3(O)C(=O)C(C(N)=O)=C(O)[C@@H](N(C)C)[C@@H]3[C@@H](O)[C@@H]21 [Doxycycline hyclate] | 0.50 | 3.13 | 0.28 | 0.25 | strong synergy | 0.03 | 0.13 | 16.00 | 85% | 0.25 | 0.56 | 0.50 | 0.50 | MIC tetracycline [1, 8]: 25.00 µg/mL
CN(C)c1ccc(O)c2c1C[C@H]1C[C@H]3[C@H](N(C)C)C(O)=C(C(N)=O)C(=O)[C@@]3(O)C(O)=C1C2=O.Cl [Minocycline hydrochloride] | 0.50 | 3.13 | 0.28 | 0.25 | strong synergy | 0.03 | 0.13 | 16.00 | 66% | 0.13 | 0.50 | 0.25 | 0.50 | synergy with dibromopropamidine (in words) [1]: Especially strong synergy; MIC tetracycline [1, 8]: 25.00 µg/mL
CN(C)[C@@H]1C(O)=C(C(N)=O)C(=O)[C@@]2(O)C(O)=C3C(=O)c4c(O)cccc4[C@@](C)(O)[C@H]3C[C@@H]12.Cl [Tetracycline hydrochloride] | 2.00 | 4.00 | 0.63 | 0.50 | strong synergy | 0.13 | 0.25 | – | – | 0.50 | 2.00 | 1.00 | – | MIC ([1]; 18 h, tetracycline antibiotic alone, Table 2 (diminazene series), read-out: MIC tetracycline): 16 µg/mL; MIC ([1]; 18 h, tetracycline antibiotic alone, Table 3 (dibromopropamidine series), read-out: MIC tetracycline compound): 16 µg/mL; MIC ([3]; 18 h, tetracycline antibiotic alone, read-out: MIC tetracycline compound): 0.5 µg/mL
CN(C)c1cc(NC(=O)CNC(C)(C)C)c(O)c2c1C[C@H]1C[C@H]3[C@H](N(C)C)C(O)=C(C(N)=O)C(=O)[C@@]3(O)C(O)=C1C2=O [Tigecycline hydrate] | 0.50 | – | 0.52 | – | – | 0.02 | – | 32.0 | 80% | 0.25 | 0.38 | 0.25 | 1.00 | synergy with diminazene (in words) ([3]; combination with diminazene, Table 4): particularly good synergy
N=C(N)c1ccc(OCCCOc2ccc(C(=N)N)cc2Br)c(Br)c1 [dibromopropamidine, Dibromopropamidine dihydrochloride] | – | – | – | – | – | – | – | – | – | – | – | – | – | MIC ([1]; dibromopropamidine alone, read-out: MIC dibromopropamidine): 10 µg/mL; MIC dibromopropamidine (μg/ml) (combination) ([1]; dibromopropamidine in combination with doxycycline hyclate): 2.50 µg/mL; MIC dibromopropamidine (μg/ml) (combination) ([1]; dibromopropamidine in combination with minocycline hydrochloride): 2.50 µg/mL; MIC dibromopropamidine (μg/ml) (combination) ([1]; dibromopropamidine in combination with tetracycline hydrochloride): 5.00 µg/mL; MIC dibromopropamidine (μg/ml) (combination) ([1]; dibromopropamidine in combination with tigecycline hydrate): 5.00 µg/mL; FIC dibromopropamidine [1, 10]: 0.25; FIC dibromopropamidine [1, 11]: 0.25; FIC dibromopropamidine [1, 12]: 0.50; FIC dibromopropamidine [1, 13]: 0.50
N=C(N)c1ccc(/N=N/Nc2ccc(C(=N)N)cc2)cc1 [diminazene, Diminazene aceturate] | – | – | – | – | – | – | – | – | 65-85% | – | – | – | – | MIC [1, 14]: 250 µg/mL; FIC dibromopropamidine ([1]; Table 2 (diminazene table), in combination with doxycycline hyclate): 0.13; FIC dibromopropamidine ([1]; Table 2 (diminazene table), in combination with minocycline hydrochloride): 0.13; FIC dibromopropamidine ([1]; Table 2 (diminazene table), in combination with tetracycline hydrochloride): 0.25; MIC diminazene (μg/ml) (combination) [1, 15]: 31.25 µg/mL; MIC diminazene (μg/ml) (combination) [1, 16]: 31.25 µg/mL; MIC diminazene (μg/ml) (combination) [1, 17]: 62.50 µg/mL; MIC [3, 14]: 20 µg/mL; MIC diminazene (μg/ml) (combination) [3, 15]: 1.25 µg/mL; MIC diminazene (μg/ml) (combination) [3, 16]: 5.00 µg/mL; MIC diminazene (μg/ml) (combination) [3, 17]: 20.00 µg/mL; MIC diminazene (μg/ml) (combination) ([3]; diminazene in combination with tigecycline hydrate): 2.50 µg/mL; FIC diminazene [3, 10]: 0.06; FIC diminazene [3, 11]: 0.25; FIC diminazene [3, 12]: 1.00; FIC diminazene [3, 13]: 0.13
Doxycycline hyclate | – | – | – | – | – | – | – | – | – | – | – | – | – | synergy with dibromopropamidine (in words) [1]: Especially strong synergy
